# Source: US20140272947A1, “METHODS AND COMPOSITIONS FOR SCREENING MODULATORS OF ONCOGENE-INDUCED SENESCENCE” (Fox Chase Cancer Center, priority 2013, published 2014)
# Key:
# [1] = tested on: primary fibroblasts (IMR90) transduced with H-RasG12V; assay: Validation: manual quantification of SA-β-gal positive cells; format: cell-based, human; details: for % SA-β-Gal + Cells Avg: 250 nM inhibitor, +H-RasG12V IMR90, 7 additional days, >300 cells counted, triplicate
# Description: Senescence-associated β-galactosidase (SA-β-Gal) assay has previously been described^9. Briefly, cells were fixed in 2% formaldehyde and 0.2% glutaraldehyde and washed with phosphate-buffered saline. Staining solution [40 mM Na2HPO4, 150 mM NaCl, 2 mM MgCl2, 5 mM K3Fe(CN)6, 5 mM K4Fe(CN)6, 1 mg/mL X-gal] was added with a multichannel pipette, and cells were incubated for 24 hrs. Cells were stained with DAPI (0.15 μg/mL) to visualize nuclei.
# (§1) Cells with β-galactosidase (blue) positivity within the cytosol were considered positive. Cells were stained with DAPI to visualize nuclei and SAHF. Cells with punctate spots within the nuclear compartment were considered SAHF positive. Cells were imaged using a Nikon Eclipse Ni fluorescence microscope as previously described^15. Three different fields of cells were counted (total cells counted >300). These experiments were performed in triplicate. Data from validation experiments is shown as a percentage of SA-β-gal or SAHF positive cells.
# These cells were then utilized in the SA-β-gal assay to examine changes in expression of SA-β-gal activity.
# (§2) Other than the control, all of the tested compounds are +H-Ras^G12V. Percentage of SA-β-gal and SAHF positive cells is shown with indicated standard deviation (SD). Total cells with SA-β-gal positive cells or SAHF positive cells were counted in three separate fields (totals cells counted >300). Experiments were performed in triplicate. p-value determined by t-test.
# [2] = tested on: primary fibroblasts (IMR90) transduced with H-RasG12V; assay: Validation: senescence-associated heterochromatin foci (SAHF) positive cells by DAPI staining; format: cell-based, human; details: for % SAHF + Cells Avg: 250 nM inhibitor, +H-RasG12V IMR90, 9 days of culture, >300 cells counted, triplicate
# Description: as §1
# After 9 days of culture, we stained the cells with DAPI to visualize the formation of SAHF.
# as §2
# senescence = details: literature report; cited from earlier work
# [3] = tested on: primary human fibroblasts (IMR90) transduced with H-RasG12V; assay: High-throughput senescence screen (SA-β-gal area and nuclei number, high-content imaging); format: cell-based; details: 250 nM, 96-well, normalized to DMSO control, hit = beyond one standard deviation
# Description: We use a model system for DIS that involves overexpressing an activated Ras in normal human fibroblast (IMR90). Upon expression of Ras, these cells undergo senescence as measured by increased β-galactosidase activity. IMR90 cells are infected with retrovirus control (496) or Ras (493). IMR90 cells were transduced over two days (Day −1 and 0) with pBABE-HRasG12V. Cells were then plated into a 96-well plate at a predetermined density (1,000 cells/well) and selected with puromycin (1 ug/mL) for two days (Day 1 and 2). The initial number of cells per well (1,000) was optimized to avoid confluence-induced growth inhibition. […] Allowing the cells to undergo senescence ([…] after puromycin selection), on day 9, cells were subjected to a quantitative SA-β-gal assay (described below) and stained with DAPI to visualize nuclei, which allowed for quantification of cell number. […]
# For the screen, four fluorescence and four phase contrast images were acquired from each well of the 96-well plates with an ImageXpress Micro high-content imaging system (Molecular Devices, Sunnyvale Calif.) using the 10× objective. […] Fluorescence images were used to record DAPI staining of cell nuclei. Images were analyzed utilizing the MultiWavelength Scoring module in METAXPRESS image analysis software (Molecular Devices). […]
# [4] = 250 nM, RAS-expressing cells, significance p<0.05 vs DMSO
smiles,measurement,setting,value
"Cc1cc(Nc2nc(-c3ccccc3)nc3ccccc23)n[nH]1 [404828-08-6, GSK-3 Inhibitor XIII]",% SA-β-Gal + Cells Avg,[1],8.2%
same,% SAHF + Cells Avg,[2],7.0%
"O=c1c2ccccc2[nH]c(=S)n1CCN1CCC(=C(c2ccc(F)cc2)c2ccc(F)cc2)CC1 [120166-69-0, Diacylglycerol Kinase Inhibitor II]",% SA-β-Gal + Cells Avg,[1],5.2%
same,% SAHF + Cells Avg,[2],10.4%
"Cc1nc2cc3nc(-c4cccs4)cnc3cc2n1C [22617-28-8, AGL2043]",% SA-β-Gal + Cells Avg,[1],10.9%
same,% SAHF + Cells Avg,[2],10.2%
"Cc1[nH]c(/C=C2\C(=O)Nc3ccc(S(=O)(=O)N(C)c4cccc(Cl)c4)cc32)c(C)c1C(=O)N1CCN(C)CC1 [658084-23-2, Met Kinase inhibitor]",% SA-β-Gal + Cells Avg,[1],5.0%
same,% SAHF + Cells Avg,[2],14.7%
"O=C(Nc1cccc(Nc2nccc(Nc3cccc(C(F)(F)F)c3)n2)c1)C1CC1 [879127-16-9, Aurora Kinase Inhibitor III]",% SA-β-Gal + Cells Avg,[1],5.7%
same,% SAHF + Cells Avg,[2],15.8%
"O=c1[nH]c2ccccc2n1C1CCN(Cc2ccc(-c3nc4cc5[nH]cnc5cc4nc3-c3ccccc3)cc2)CC1 [612847-09-3, Akt Inhibitor VIII]",% SA-β-Gal + Cells Avg,[1],21.3%
same,"Reduction of expression of SA-β-gal activity (validation, in words)",[1]; [4],failed to reduce SA-β-gal activity
same,% SAHF + Cells Avg,[2],11.3%
"COc1cc2nccc(Oc3ccc(NC(=S)NC(=O)c4ccccc4C)cc3)c2cc1OC [347155-76-4, PDGFR Tyrosine Kinase Inhibitor V]",% SA-β-Gal + Cells Avg,[1],6.7%
same,% SAHF + Cells Avg,[2],16.3%
"c1cc(-c2cnn3cc(-c4ccc(OCCN5CCCCC5)cc4)cnc23)ccn1 [866405-64-3, AMPK Compound C]",% SA-β-Gal + Cells Avg,[1],4.4%
same,% SAHF + Cells Avg,[2],15.9%
same,Prevention of senescence (reported),senescence,reported to prevent senescence
"CCc1[nH]c(-c2ccc(OC)cc2)nc1-c1ccncc1 [172747-50-1, SB 202474]",% SA-β-Gal + Cells Avg,[1],6.7%
same,% SAHF + Cells Avg,[2],10.4%
"COc1ccc(S(=O)(=O)N(CCO)c2ccccc2CN(C)CC=Cc2ccc(Cl)cc2)cc1 [139298-40-1, KN-93]",% SA-β-Gal + Cells Avg,[1],8.1%
same,% SAHF + Cells Avg,[2],12.3%
"Cn1sc(=O)n(Cc2ccccc2)c1=O [327036-89-5, GSK3β Inhibitor I]",% SA-β-Gal + Cells Avg,[1],6.5%
same,% SAHF + Cells Avg,[2],7.8%
"O=C1NC(=O)C(c2cn(CCCn3ccnc3)c3ccccc23)=C1Nc1ccccc1 [257879-35-9, PKC β Inhibitor]",% SA-β-Gal + Cells Avg,[1],5.5%
same,% SAHF + Cells Avg,[2],8.3%
O=C1NC(=O)/C(=C/c2ccc3c(c2)OC(F)(F)O3)S1 [648449-76-7],Effect on SA-β-gal area and cell number (nuclei) in initial screen,[3],no effect on SA-β-gal area or cell number
same,% SA-β-Gal + Cells Avg,[1],20.7%
same,% SAHF + Cells Avg,[2],26.9%
"COc1cc2ncnc(Nc3cccc(Cl)c3)c2cc1OC [175178-82-2, AG 1478]",% SA-β-Gal + Cells Avg,[1],3.8%
same,% SAHF + Cells Avg,[2],11.5%
"Oc1cccc(-c2nc(N3CCOCC3)c3oc4ncccc4c3n2)c1 [371935-74-9, PI-103]",% SA-β-Gal + Cells Avg,[1],4.7%
same,% SAHF + Cells Avg,[2],43.0%
same,"Inhibition of oncogenic RAS-induced SAHF formation (validation, in words)",[2]; [4],failed to prevent SAHF formation
"O=c1c(-c2ccc(F)cc2)c(-c2ccncc2)[nH]n1-c1ccc(Cl)cc1 [219138-24-6, P38 MAPK Inhibitor]",% SA-β-Gal + Cells Avg,[1],5.8%
same,% SAHF + Cells Avg,[2],16.3%
"NC(=O)c1ccc2nc(-c3ccc(Oc4ccc(Cl)cc4)cc3)[nH]c2c1 [516480-79-8, Chk2 Inhibitor II]",% SA-β-Gal + Cells Avg,[1],7.4%
same,% SAHF + Cells Avg,[2],13.2%
"O=C(Nc1ccc(Cl)cc1)c1ccccc1NCc1ccncc1 [269390-69-4, VEGFR Tyrosine Kinase Inhibitor II]",% SA-β-Gal + Cells Avg,[1],4.1%
same,% SAHF + Cells Avg,[2],13.0%
